Data: US20240294541A1, “COMPOUNDS CONSTITUTING C20-MODIFIED SALINOMYCIN DERIVATIVES, A METHOD FOR OBTAINING THE SAME, A COMPOSITION CONTAINING THE SAME AND A USE OF SAID COMPOUNDS” (FILECLO SPOLKA Z OGRANICZONA ODPOWIEDZIALNOSCIA, priority 2021, published 2024)

Columns and labels:
Assay type in all cases: cell-based
[1] = test system: Hs294T (human melanoma); assay: cells; conditions: Table 4; for IC50: Hs 294T, Hs294T human melanoma cells, read-out: IC50 (nM) Hs294T; for SI Hs294T: selectivity coefficient vs normal BALB/3T3 fibroblasts
[2] = test system: NCI-H358 (human lung cancer); assay: cells; conditions: Table 4; for IC50: NCI-H358 human lung cancer cells, read-out: IC50 (nM) NCI-H358; for SI NCI-H358: selectivity coefficient vs normal BALB/3T3 fibroblasts
[3] = test system: PLC/PRF/5 (human liver cancer); assay: cells; conditions: Table 4; for IC50: PLC/PRF/5 human liver cancer cells, read-out: IC50 (nM) PLC/PRF/5; for SI PLC/PRF/5: selectivity coefficient vs normal BALB/3T3 fibroblasts
[4] = test system: A2780Cis (cisplatin-resistant human ovarian cancer); assay: In vitro cytotoxicity, SRB assay, A2780Cis; conditions: for IC50: Homo sapiens, A2780cis, read-out: IC50 (nM) A2780Cis
[5] = test system: BALB/3T3 (normal mouse fibroblasts); assay: In vitro cytotoxicity, SRB assay, normal BALB/3T3 fibroblasts; conditions: Table 4; BALB/3T3 normal mouse fibroblasts; read-out: IC50 (nM) BALB3T3 normal cells
[6] = test system: SNU-16 (human gastric cancer); assay: cells; conditions: Table 4; for IC50: SNU-16 human gastric cancer cells, read-out: IC50 (nM) SNU-16; for SI SNU-16: selectivity coefficient vs normal BALB/3T3 fibroblasts
[7] = test system: MV-4-11 (human biphenotypic leukaemia); assay: In vitro cytotoxicity, MTT assay, MV-4-11; conditions: for IC50: Homo sapiens, MV4-11, read-out: IC50 (nM) MV4-11
[8] = test system: MIA PaCa-2 (human pancreatic cancer); assay: cells; conditions: Table 4; for IC50: MIA PaCa-2 human pancreatic cancer cells, read-out: IC50 (nM) MIA PaCa-2; for SI MIA PaCa-2: selectivity coefficient vs normal BALB/3T3 fibroblasts

Structure (SMILES)	IC50 [1] [nM]	SI Hs294T [1]	IC50 [2] [nM]	SI NCI-H358 [2]	IC50 [3] [nM]	SI PLC/PRF/5 [3]	SI A2780Cis [4]	IC50 [4] [nM]	IC50 [5] [nM]	IC50 [6] [nM]	SI SNU-16 [6]	SI MV4-11 [7]	IC50 [7] [nM]	IC50 [8] [nM]	SI MIA PaCa-2 [8]
CC[C@@H](C(=O)[C@@H](C)[C@@H](O)[C@H](C)[C@@H]1O[C@@H]([C@@H](CC)C(=O)O)CC[C@@H]1C)[C@H]1O[C@]2(C=C[C@@H](NC(=O)C3CCCC3)[C@]3(CC[C@@](C)([C@H]4CC[C@](O)(CC)[C@H](C)O4)O3)O2)[C@H](C)C[C@@H]1C [FLC-00455-1•Na]	140	2.3	54.5	5.91	60.7	5.3	232.6	1.39	323	165	2.0	112.3	2.87	33	9.8
CC[C@@H](C(=O)[C@@H](C)[C@@H](O)[C@H](C)[C@@H]1O[C@@H]([C@@H](CC)C(=O)O)CC[C@@H]1C)[C@H]1O[C@]2(C=C[C@@H](NC(=O)OCCCCCCCl)[C@]3(CC[C@@](C)([C@H]4CC[C@](O)(CC)[C@H](C)O4)O3)O2)[C@H](C)C[C@@H]1C [FLC-00444-1•Na]	627	0.2	53.7	2.75	4	36.9	98.9	1.5	148	105	1.4	98.9	1.5	21.3	6.9
CC[C@@H](C(=O)[C@@H](C)[C@@H](O)[C@H](C)[C@@H]1O[C@@H]([C@@H](CC)C(=O)O)CC[C@@H]1C)[C@H]1O[C@]2(C=C[C@@H](NC(=O)C(=O)NCCCc3ccccc3)[C@]3(CC[C@@](C)([C@H]4CC[C@](O)(CC)[C@H](C)O4)O3)O2)[C@H](C)C[C@@H]1C [FLC-00458-1•Na]	1590	0.5	368	1.97	84.4	8.6	29.6	24.5	727	323	2.2	31.3	23.2	61.9	11.7
CC[C@@H](C(=O)[C@@H](C)[C@@H](O)[C@H](C)[C@@H]1O[C@@H]([C@@H](CC)C(=O)O)CC[C@@H]1C)[C@H]1O[C@]2(C=C[C@@H](NC(N)=O)[C@]3(CC[C@@](C)([C@H]4CC[C@](O)(CC)[C@H](C)O4)O3)O2)[C@H](C)C[C@@H]1C [FLC-00391-1]	5870	0.6	5150	0.69	584	6.1	33.0	108	3570	1330	2.7	10.2	349	3090	1.2
CC[C@@H](C(=O)[C@@H](C)[C@@H](O)[C@H](C)[C@@H]1O[C@@H]([C@@H](CC)C(=O)O)CC[C@@H]1C)[C@H]1O[C@]2(C=C[C@@H](NC(=O)C(=O)NC3CC3)[C@]3(CC[C@@](C)([C@H]4CC[C@](O)(CC)[C@H](C)O4)O3)O2)[C@H](C)C[C@@H]1C [FLC-00441-1•Na]	969	1.2	930	1.21	208	5.4	25.7	43.8	1120	2600	0.4	42.5	26.5	373	3.0
